Test results published in ChEMBL document CHEMBL1201862, “PubChem BioAssay data set” (2004).
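Compound exposure: 48 hours, 5 concentrations, 96-well plates. GI50 = concentration required for 50% inhibition of growth.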 Calls of active or inactive are those of the source. Rule as the data show it: active = GI50 up to about 1.1 µM and inactive = higher.

How the values were obtained:
Experiment in all cases: growth of human tumour cells (NCI), 48 h
[1] = test system: HCT-116
[2] = test system: OVCAR-8
[3] = test system: NCI-H226
[4] = test system: RXF 393
[5] = test system: HCC 2998
[6] = test system: U-251
[7] = test system: MOLT-4
[8] = test system: CCRF-CEM
[9] = test system: Malme-3M
[10] = test system: NCI-H522
[11] = test system: SNB-75
[12] = test system: SK-MEL-28
[13] = test system: SN12C
[14] = test system: SK-MEL-2
[15] = test system: ACHN
[16] = test system: A549
[17] = test system: MCF7
[18] = test system: LOX IMVI
[19] = test system: MDA-MB-231
[20] = test system: MDA-N

SMILES	GI50 [1]	GI50 [2]	GI50 [3]	GI50 [4]	GI50 [5]	GI50 [6]	GI50 [7]	GI50 [8]	GI50 [9]	GI50 [10]	GI50 [11]	GI50 [12]	GI50 [13]	GI50 [14]	GI50 [15]	GI50 [16]	GI50 [17]	GI50 [18]	GI50 [19]	GI50 [20]
COc1nn(Cc2ccccn2)c2ccc([N+](=O)[O-])cc12	62.4 µM (inactive)	> 100 µM (inactive)	85.9 µM (inactive)	42.4 µM (inactive)	84.7 µM (inactive)	> 100 µM (inactive)	53.1 µM (inactive)	76.2 µM (inactive)	> 100 µM (inactive)	47.8 µM (inactive)	17.3 µM (inactive)	> 100 µM (inactive)	> 100 µM (inactive)	51.1 µM (inactive)	48.6 µM (inactive)	> 100 µM (inactive)	> 100 µM (inactive)	53.6 µM (inactive)	57.4 µM (inactive)	27.8 µM (inactive)
O=[N+]([O-])C(/C=C(\Cl)[N+](=O)[O-])=C(N1CCOCC1)N1CCOCC1	25.3 µM (inactive)	> 100 µM (inactive)	> 100 µM (inactive)	31.5 µM (inactive)	24 µM (inactive)	24.6 µM (inactive)	50.2 µM (inactive)	56.9 µM (inactive)	27.2 µM (inactive)	41.8 µM (inactive)	50.5 µM (inactive)	> 100 µM (inactive)	> 100 µM (inactive)	> 100 µM (inactive)	41.7 µM (inactive)	19.4 µM (inactive)	17.6 µM (inactive)	85.9 µM (inactive)	23.3 µM (inactive)	> 100 µM (inactive)
COCOc1c(C(O[Si](C)(C)C(C)(C)C)c2cnc(Sc3ccccc3)n2C)ccc(OC)c1OC (stereo not given)	1.6 µM (inactive)	1.43 µM (inactive)	1.85 µM (inactive)	1.36 µM (inactive)	1.84 µM (inactive)	1.64 µM (inactive)	2.54 µM (inactive)	2.84 µM (inactive)	2.45 µM (inactive)	1.62 µM (inactive)	2.2 µM (inactive)	1.84 µM (inactive)	1.78 µM (inactive)	1.31 µM (inactive)	2.42 µM (inactive)	1.88 µM (inactive)	1.76 µM (inactive)	1.84 µM (inactive)	1.66 µM (inactive)	1.77 µM (inactive)
CN(CCCNC(=O)c1nn(-c2ccccc2)c2c1ccc1ccccc12)CCCNC(=O)c1nn(-c2ccccc2)c2c1ccc1ccccc12	1.82 µM (inactive)	1.85 µM (inactive)	2.08 µM (inactive)	1.76 µM (inactive)	1.31 µM (inactive)	1.6 µM (inactive)	1.98 µM (inactive)	0.178 µM (active)	1.77 µM (inactive)	1.79 µM (inactive)	1.64 µM (inactive)	1.74 µM (inactive)	1.85 µM (inactive)	1.69 µM (inactive)	1.74 µM (inactive)	1.84 µM (inactive)	1.8 µM (inactive)	1.73 µM (inactive)	2.12 µM (inactive)	1.68 µM (inactive)
C=C(C)C(=O)OC1C(C(C)CCCO)=C(CO)CC2OC(=O)C(=C)C21 (stereo not given)	14.6 µM (inactive)	18.8 µM (inactive)	37.9 µM (inactive)	13.8 µM (inactive)	17.7 µM (inactive)	20.2 µM (inactive)	18.4 µM (inactive)	12.6 µM (inactive)	0.509 µM (active)	3.44 µM (inactive)	10.4 µM (inactive)	20 µM (inactive)	16.1 µM (inactive)	20.5 µM (inactive)	24.1 µM (inactive)	23.2 µM (inactive)	11 µM (inactive)	10.1 µM (inactive)	17.5 µM (inactive)	16.7 µM (inactive)
